# Experimental data taken from US12558354B2, “Tumor necrosis factor alpha (TNF-alpha) small molecule inhibitor” (AJOU UNIVERSITY INDUSTRY-ACADEMIC COOPERATION FOUNDATION, priority 2019, dated 2026).
# “Also recorded” adds a separate entry of the source.
# Assays:
# [1] = target: T1, TNFRI (Homo sapiens, UniProt P19438); settings: target TNFRI, literature; cited from earlier work
# T1 sequence (P19438 30-455): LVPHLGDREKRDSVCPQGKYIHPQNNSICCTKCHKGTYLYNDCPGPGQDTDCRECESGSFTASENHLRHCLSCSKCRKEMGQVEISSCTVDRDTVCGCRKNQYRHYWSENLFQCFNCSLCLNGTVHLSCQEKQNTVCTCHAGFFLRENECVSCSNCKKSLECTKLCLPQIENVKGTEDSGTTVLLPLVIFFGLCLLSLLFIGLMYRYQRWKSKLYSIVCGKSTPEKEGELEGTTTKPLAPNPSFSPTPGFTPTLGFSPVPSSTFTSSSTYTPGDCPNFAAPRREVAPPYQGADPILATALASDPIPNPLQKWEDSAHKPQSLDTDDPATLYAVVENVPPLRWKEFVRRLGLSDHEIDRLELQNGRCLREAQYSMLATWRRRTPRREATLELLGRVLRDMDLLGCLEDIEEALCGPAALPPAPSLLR
# [2] = system: human dermal fibroblasts (HDFs); experiment: Cell viability (MTT) assay in human dermal fibroblasts; format: cell-based; settings: 24 hours
# Description: (§1) FIG. 8A is a graph showing the effects of TIM1 and a solvent thereof, DMSO, on the viability of human dermal fibroblasts, in which cells (10^4/well) were treated with DMSO at 3 different concentrations (0.5, 1, and 2%) and TIM1 at 8 different concentrations (1, 3.125, 6.25, 12.5, 25, 50, 100, and 200 μM) for 24 hours, and the cell viability was monitored by an MTT assay. FIG. 8B is a graph showing the effect of TIM1 on the viability of a mouse fibrosarcoma cell line [L929 (1.5×10^4/well)] under the same conditions as in FIG. 8A. All experiments were independently performed 4 times, and mean±SEM of the independent experiments was calculated using a two-tailed paired Student's t-test (*P<0.05).
# (§2) In order to measure cell viability, a colorimetric […] (MTT) assay (Sigma-Aldrich Co.) was performed. HDFs were seeded at a density of 10^4/well in 96-well plates (BD Biosciences, San Jose, CA, USA), grown overnight, and then treated with a test compound at various concentrations for 24 hours. The next day, the medium was replaced with a medium (100 μl/well) containing a 10% MTT solution, followed by incubated at 37° C. for 3 hours. This solution was replaced with DMSO (100 μl/well), and the plates were incubated at room temperature for 30 minutes. Thereafter, the plates were read at a wavelength of 540 nm using a microplate spectrophotometer system (Molecular Devices, Silicon Valley, California).
# [3] = target: T2, recombinant human TNF-α (rhTNF-α) (Homo sapiens, UniProt P01375); experiment: TNF-α-mediated hIL-8 secretion in HDFs (ELISA); format: cell-based; settings: 24 hours
# T2 construct: purchased Miltenyi Biotec
# Description: (§3) HDFs were seeded at a density of 10^4/well in a 96-well plate (BD Biosciences) and grown overnight. The cells were treated for 24 hours with a 1-hour-pre-incubated mixture of rhTNF-α and test compounds. IL-8 secretion was assessed by a human IL-8 uncoated ELISA kit (eBioscience, Inc., San Diego, CA, USA), and IL-6 secretion level was assessed by a human IL-6 ELISA MAX™ Deluxe kit (BioLegend, San Diego, CA, USA). The microtiter plates were then analyzed at an appropriate wavelength using a microplate spectrophotometer system (Molecular Devices, Silicon Valley, California).
# [4] = target: T3, recombinant human TNF-α homotrimer (Homo sapiens, UniProt P01375); experiment: Dissociation of TNF-α trimerization assembly (cross-linking, Western blot), human; format: biochemical; settings: cross-linked with BS3, Western blot
# T3 construct: purchased Miltenyi Biotec
# Description: (§4) Inhibitors were incubated with 100 ng of recombinant TNF-α at 37° C. for 1 hour and then cross-linked with 4.8 mM BS3 (Thermo Fisher Scientific, Inc.) at room temperature for 30 minutes. Then, a 1/10 volume of 1 M Tris-HCl (pH 7.5) was added to stop the reaction. Thereafter, samples were separated by SDS-PAGE, followed by Western blotting with anti-TNF-α antibody (Cell Signaling Technology Inc.).
# [5] = target: T4, recombinant mouse TNF-α (rmTNF-α) (Mus musculus, UniProt P06804); experiment: Cell death attenuation assay, act-D-sensitized L929 cells with rmTNF-α; format: cell-based
# T4 construct: purchased Miltenyi Biotec
# T4 sequence (P06804 80-235 limits assumed): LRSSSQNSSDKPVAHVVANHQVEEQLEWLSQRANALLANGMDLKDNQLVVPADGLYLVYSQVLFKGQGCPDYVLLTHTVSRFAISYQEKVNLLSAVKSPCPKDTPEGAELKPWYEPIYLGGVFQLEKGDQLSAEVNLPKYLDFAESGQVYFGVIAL
# Description: (§5) HDFs (10^4/well) and L929 cell lines (1.5×10^4/well) were seeded in 96-well plates and grown overnight under appropriate conditions. The next day, HDFs and L929 cells were pretreated with 1 μg/ml act-D and 0.1 μg/ml act-D, respectively, followed by incubated for 30 minutes. Thereafter, a 1-hour-preincubated mixture of 10 ng/ml rhTNFα with test compounds or 1 ng/ml rmTNFα with test compounds, was applied to HDFs and L929 cells, respectively. The cells were incubated for 24 hours post-treatment, and survival was measured by the MTT assay. Cell viability was calculated with reference to the no-treatment control group. The obtained values were normalized with respect to the act-D treatment group and then used to calculate death attenuation (%) rate using the following equation: […]
# [6] = system: TNF-α-dependent signaling pathways (NF-κB, MAPKs, caspases 3 and 8); experiment: Western blot of TNF-α-dependent signaling pathways in L929 cells; format: cell-based, mouse
# Description: Total protein was extracted from the treated cells using an M-PER mammalian protein extraction reagent (Thermo Fisher Scientific, Inc.). The cell pellets were dissolved in a mixture of M-PER with protease and phosphatase inhibitor cocktail (Thermo Fisher Scientific, Inc.) at 4° C. for 1 minute, and the lysate thus obtained was centrifuged at 16,000×g and 4° C. for 10 minutes. The supernatant containing the protein was collected in a separate Eppendorf tube, and a BCA assay (Sigma-Aldrich) was performed for protein quantification. 20 Hg of a protein sample was placed in a 10-12% polyacrylamide gel (containing SDS), and the separated protein was transferred to a nitrocellulose membrane (HYBOND ECL™; Amersham Pharmacia Biotech Inc, Piscataway, New Jersey) of a mini-PROTEAN tetra cell and mini trans-blot electrophoretic transfer cell system (Bio-Rad Laboratories). Membrane blocking was performed with 5% nonfat dried milk for 1 hour. The membrane was subjected to immunoblotting through gentle shaking overnight at a temperature of 4° C. with certain primary antibodies, i.e. antibodies to (phospho-)p-p65, p-JNK, JNK, p-ERK, ERK, cleaved caspase 3 (Cell Signaling Technology Inc., Danvers, MA, USA), p-p38, caspase 8, and β-actin (Santa Cruz Biotechnology Inc., Dallas, TX, USA). The next day, after rigorous washing with PBST, the membrane was incubated with peroxidase-conjugated anti-mouse or anti-rabbit IgG antibodies at room temperature for 2 hours. Protein was detected using a SuperSignal West Pico ECL solution (Thermo Fisher Scientific, Inc.) and visualized with a CHEMIDOC™ Touch Imaging System (Bio-Rad Laboratories).
# [7] = target: T5, recombinant mouse TNF-α homotrimer (Mus musculus, UniProt P06804); experiment: Dissociation of TNF-α trimerization assembly (cross-linking, Western blot), mouse; format: biochemical; settings: cross-linked with BS3, Western blot
# T5 construct: purchased Miltenyi Biotec
# T5 sequence (P06804 80-235 limits assumed): T4 sequence (P06804 80-235 limits assumed)
# Description: as §4
# [8] = target: T2, recombinant human TNF-α (rhTNF-α); experiment: TNF-α-mediated hIL-6 secretion in HDFs (ELISA); format: cell-based; settings: 24 hours
# Description: as §3
# [9] = target: T2, recombinant human TNF-α (rhTNF-α); experiment: Cell death attenuation assay, act-D-sensitized HDFs with rhTNF-α; format: cell-based
# Description: as §5
# [10] = system: murine fibrosarcoma cell line L929; experiment: Cell viability (MTT) assay in L929 cells; format: cell-based; settings: L929, up to 200 μM, 24 hours
# Description: as §1
# as §2, with “This solution was replaced with DMSO (100 μl/well), and the plates were incubated at room temperature for 30 minutes.” left out
# [11] = target: TNF-α (Homo sapiens, UniProt P01375); settings: target TNF-α, literature; cited from earlier work
# [12] = HDFs, rhTNF-α 1 ng/ml pre-incubated 1 hour
# [13] = L929, 20 μM, rmTNF-α 1 ng/ml, 5-30 minutes
# T2 sequence (P01375 77-233 limits assumed): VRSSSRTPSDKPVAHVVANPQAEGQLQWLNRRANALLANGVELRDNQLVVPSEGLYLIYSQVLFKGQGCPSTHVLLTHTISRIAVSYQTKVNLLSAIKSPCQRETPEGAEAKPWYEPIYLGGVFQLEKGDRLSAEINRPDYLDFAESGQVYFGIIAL
# TNF-α, sequence (P01375 77-233 limits assumed, species assumed): as the sequence (P01375 77-233 limits assumed) above
# T3 sequence (P01375 77-233 limits assumed): as above
molecule,measurement,setting,value
Physcion-8-O-β-D-monoglucoside,Kd,[1],0.376 µM
"C#Cc1cccc(Nc2nc(-c3cc(C)n(NC(=O)c4nn(C)c(=O)c5ccccc45)c3C)cs2)c1 [TIM1, N-(3-{2-[(3-ethynylphenyl)amino]-1,3-thiazol-4-yl}-2,5-dimethylpyrrol-1-yl)-3-methyl-4-oxophthalazine-1-carboxamide]",lethality / cytotoxicity at increasing concentrations,"[2]; HDF, up to 200 μM",no lethality; also recorded: does not show cytotoxicity up to 200 μM
same,"cytotoxicity (cell viability, MTT assay)",[2]; HDFs,no cytotoxicity up to a concentration of 50 μM; also recorded: did not exhibit cytotoxicity even at high concentrations (up to 100 μM)
same,inhibition of TNF-α-mediated hIL-8 secretion,"[3]; HDFs, 1, 10, 50 and 100 μM",inhibited TNF-α-mediated secretion
same,IC50,[3]; [12],16.7 µM
same,"formation of functional homotrimers, rhTNF-α",[4],inhibited the formation of functional homotrimers
same,IC50,[5],24.9 µM
same,inhibition of rmTNF-α-mediated proapoptotic pathway / cell death,"[5]; act-D-sensitized L929, rmTNF-α 1 ng/ml, 1-100 μM",inhibited the rmTNF-α-mediated proapoptotic pathway in L929 cells in a concentration-dependent manner
same,TNF-α-mediated phosphorylation of the p65 subunit (NF-κB),[6]; [13],attenuated
same,"phosphorylation of MAPKs (p38 MAPK, JNK, ERK)",[6]; [13],inhibited
same,formation of cleaved active caspases 3 and 8,"[6]; L929, TNF-α stimulation",blocked
same,"formation of functional homotrimers, rmTNF-α",[7],inhibited the formation of functional homotrimers
same,inhibition of TNF-α-mediated hIL-6 secretion,"[8]; HDFs, 1, 10, 50 and 100 μM",inhibited TNF-α-mediated secretion
same,IC50,[8]; [12],6.3 µM
same,IC50,[9],26.2 µM
same,attenuation of TNF-α-induced apoptosis,"[9]; act-D-sensitized HDFs, rhTNF-α 10 ng/ml, 1-100 μM",Significant attenuation
same,lethality at increasing concentrations,[10],no lethality
O=C1Sc2c(S(=O)(=O)Nc3ccc(O)cc3)cc(S(=O)(=O)Nc3ccc(O)cc3)c3cccc1c23 [AP-906/41640035],IC50,[11],14 µM
